Results from ChEMBL document CHEMBL1201862, “PubChem BioAssay data set” (2004).
The source made the active and inactive calls.

Legend:
[1] = target: T1, Heat shock factor protein 1 (Mus musculus, UniProt P38532); experiment: enhancement of HSF1-driven luciferase signal – cell-based, NIH3T3, luminescence, dose retest, confirmation (AID 435004); format: functional;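 also: stress induced by proteasome inhibitor MG132 added 30 min after compound; luciferase reporter driven by HSF1 response element in NIH3T3 cells; actives raise luminescence as potentiators of the MG132 stress response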
T1 sequence (P38532 whole entry): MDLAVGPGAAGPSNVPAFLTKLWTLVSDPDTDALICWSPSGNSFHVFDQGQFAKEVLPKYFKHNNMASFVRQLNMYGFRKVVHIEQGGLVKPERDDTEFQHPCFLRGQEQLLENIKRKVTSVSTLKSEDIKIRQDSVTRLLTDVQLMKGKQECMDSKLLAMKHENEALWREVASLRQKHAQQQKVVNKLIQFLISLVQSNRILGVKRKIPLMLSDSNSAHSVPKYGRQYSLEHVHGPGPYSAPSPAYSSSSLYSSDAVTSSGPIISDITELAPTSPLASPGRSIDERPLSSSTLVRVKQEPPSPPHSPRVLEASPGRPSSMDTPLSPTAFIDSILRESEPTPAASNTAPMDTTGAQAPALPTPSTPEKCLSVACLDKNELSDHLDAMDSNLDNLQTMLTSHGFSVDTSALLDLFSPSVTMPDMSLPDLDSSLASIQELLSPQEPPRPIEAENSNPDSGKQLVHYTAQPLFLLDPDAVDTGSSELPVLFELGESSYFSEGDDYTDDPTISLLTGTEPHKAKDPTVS

[2] = target: Cytochrome P450 2C19 (Homo sapiens, UniProt P33261); experiment: Cytochrome panel assay with activity outcomes. Panel member name: p450-cyp2c19 Compounds with AC50 equal or less than 10 uM are considered active; format: functional
Chain of Cytochrome P450 2C19 (P33261 whole entry): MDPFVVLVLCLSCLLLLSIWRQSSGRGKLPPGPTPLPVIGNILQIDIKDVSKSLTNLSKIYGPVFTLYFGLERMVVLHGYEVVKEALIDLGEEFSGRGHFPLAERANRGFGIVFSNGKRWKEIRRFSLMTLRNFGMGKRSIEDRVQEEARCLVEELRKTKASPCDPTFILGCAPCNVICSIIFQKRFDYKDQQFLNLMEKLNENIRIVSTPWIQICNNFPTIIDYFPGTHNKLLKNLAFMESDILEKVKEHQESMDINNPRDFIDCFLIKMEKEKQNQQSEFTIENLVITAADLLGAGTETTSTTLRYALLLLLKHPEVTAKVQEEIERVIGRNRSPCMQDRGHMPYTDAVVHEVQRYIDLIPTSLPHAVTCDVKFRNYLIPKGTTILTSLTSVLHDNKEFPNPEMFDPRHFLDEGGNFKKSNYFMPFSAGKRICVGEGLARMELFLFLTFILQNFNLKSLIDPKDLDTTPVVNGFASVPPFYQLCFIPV

[3] = target: Cytochrome P450 3A4 (Homo sapiens, UniProt P08684);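 also: CYP3A4 tested as one member of a cytochrome P450 panel screen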
Chain of Cytochrome P450 3A4 (P08684 whole entry): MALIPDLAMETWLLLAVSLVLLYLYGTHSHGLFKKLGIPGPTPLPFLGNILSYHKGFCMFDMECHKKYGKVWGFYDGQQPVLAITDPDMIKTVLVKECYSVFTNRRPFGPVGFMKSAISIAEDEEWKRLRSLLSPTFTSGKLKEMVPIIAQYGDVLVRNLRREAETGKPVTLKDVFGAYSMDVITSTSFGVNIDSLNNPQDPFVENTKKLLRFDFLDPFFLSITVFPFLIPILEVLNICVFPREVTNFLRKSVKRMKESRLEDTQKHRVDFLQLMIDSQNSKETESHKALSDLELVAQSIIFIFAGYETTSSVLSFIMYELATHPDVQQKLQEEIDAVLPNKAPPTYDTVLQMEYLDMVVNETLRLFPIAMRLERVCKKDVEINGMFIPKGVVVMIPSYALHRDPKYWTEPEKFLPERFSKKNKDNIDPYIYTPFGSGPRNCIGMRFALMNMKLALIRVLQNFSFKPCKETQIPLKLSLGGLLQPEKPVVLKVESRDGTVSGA

[4] = cells; format: functional, cell-based
[5] = cells; format: functional, cell-based; remark: listed apart in the source
[6] = Luminescence Cell-Based Dose Confirmation HTS to Identify Activators of 5'UTR Stem-Loop Driven Alpha-Synuclein mRNA Translation in H4 Neuroglioblastoma Cells. [Related pubchem assays: 1829 (Project Summary), 1814 (Primary HTS)]; format: functional
[7] = Luminescence Cell-Based Dose Response HTS to Identify Activators of Luciferase Translation or Activity in H4 […] Cells. [Related pubchem assays: 1829 (Project Summary), 1814 (Primary HTS)]; format: functional
[8] = test system: H4; experiment: Luminescence Cell-Based Dose Response HTS to Identify Activators of 5'UTR Stem-Loop Driven Prion Protein mRNA Translation in H4 Neuroglioblastoma Cells. [Related pubchem assays: 1829 (Project Summary), 1814 (Primary HTS)]; format: functional; conditions: Homo sapiens
[9] = target: Cytochrome P450 2C9 (Homo sapiens, UniProt P11712)
Chain of Cytochrome P450 2C9 (P11712 whole entry): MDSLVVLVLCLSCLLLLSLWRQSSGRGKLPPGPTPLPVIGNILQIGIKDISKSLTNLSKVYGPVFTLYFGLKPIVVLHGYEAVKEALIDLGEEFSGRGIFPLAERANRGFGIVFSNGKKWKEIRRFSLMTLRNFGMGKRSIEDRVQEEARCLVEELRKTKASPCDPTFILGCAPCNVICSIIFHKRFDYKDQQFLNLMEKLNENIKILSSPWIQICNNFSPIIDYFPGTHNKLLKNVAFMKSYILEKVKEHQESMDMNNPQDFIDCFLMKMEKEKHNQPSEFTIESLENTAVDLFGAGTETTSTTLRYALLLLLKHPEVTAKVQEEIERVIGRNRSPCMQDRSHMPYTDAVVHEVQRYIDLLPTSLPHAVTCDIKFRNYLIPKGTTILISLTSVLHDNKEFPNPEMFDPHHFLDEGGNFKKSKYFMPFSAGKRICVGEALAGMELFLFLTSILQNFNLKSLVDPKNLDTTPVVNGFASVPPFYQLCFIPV

[10] = test system: INS1; experiment: INS-1E survival protection against cytokine death – cell-based, luminescence, retest, dose response (AID 449756); format: functional; conditions: Rattus norvegicus;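 also: cell death triggered by IL-1 beta plus TNF-alpha plus IFN-gamma mixture; protective hits raise ATP signal compared with cytokine alone wells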
[11] = target: T2, Replicative DNA helicase DnaB (Mycobacterium tuberculosis, UniProt P9WMR3); experiment: DnaB intein splicing inhibitors, dose response, biochemical, cell-free fluorescence (AID 449749); format: functional
T2 sequence (P9WMR3 whole entry): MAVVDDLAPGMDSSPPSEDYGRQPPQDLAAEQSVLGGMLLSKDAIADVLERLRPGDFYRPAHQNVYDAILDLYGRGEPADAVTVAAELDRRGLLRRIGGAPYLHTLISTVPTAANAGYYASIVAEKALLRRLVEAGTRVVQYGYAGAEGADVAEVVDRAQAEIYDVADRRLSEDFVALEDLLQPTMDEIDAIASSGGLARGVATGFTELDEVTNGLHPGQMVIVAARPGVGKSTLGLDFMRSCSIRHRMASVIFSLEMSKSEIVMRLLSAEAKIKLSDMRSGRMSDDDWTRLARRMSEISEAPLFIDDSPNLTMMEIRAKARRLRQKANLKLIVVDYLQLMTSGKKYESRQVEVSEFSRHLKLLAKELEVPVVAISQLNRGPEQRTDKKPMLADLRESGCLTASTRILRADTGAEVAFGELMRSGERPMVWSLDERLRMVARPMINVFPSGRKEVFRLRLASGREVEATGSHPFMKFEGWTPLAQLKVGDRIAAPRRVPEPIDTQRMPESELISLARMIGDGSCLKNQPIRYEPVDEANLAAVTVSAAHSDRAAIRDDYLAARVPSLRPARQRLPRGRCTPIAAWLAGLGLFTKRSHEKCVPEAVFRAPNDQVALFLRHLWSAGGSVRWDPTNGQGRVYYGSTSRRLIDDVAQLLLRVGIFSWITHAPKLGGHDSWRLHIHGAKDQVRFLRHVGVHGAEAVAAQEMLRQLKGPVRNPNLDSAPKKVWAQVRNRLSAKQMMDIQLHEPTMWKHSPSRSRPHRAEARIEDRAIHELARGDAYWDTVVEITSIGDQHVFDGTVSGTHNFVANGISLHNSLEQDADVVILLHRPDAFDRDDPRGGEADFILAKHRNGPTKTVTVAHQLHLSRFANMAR

[12] = target: T3, Protein RecA (Mycobacterium tuberculosis, UniProt P9WHJ3); experiment: Fluorescence Cell-Free Homogeneous Dose Retest to Identify Inhibitors of RecA-Intein Splicing Activity. [Related pubchem assays (depositor defined):AID2097, AID2223, AID489010, AID492950]; format: functional
T3 sequence (P9WHJ3 whole entry): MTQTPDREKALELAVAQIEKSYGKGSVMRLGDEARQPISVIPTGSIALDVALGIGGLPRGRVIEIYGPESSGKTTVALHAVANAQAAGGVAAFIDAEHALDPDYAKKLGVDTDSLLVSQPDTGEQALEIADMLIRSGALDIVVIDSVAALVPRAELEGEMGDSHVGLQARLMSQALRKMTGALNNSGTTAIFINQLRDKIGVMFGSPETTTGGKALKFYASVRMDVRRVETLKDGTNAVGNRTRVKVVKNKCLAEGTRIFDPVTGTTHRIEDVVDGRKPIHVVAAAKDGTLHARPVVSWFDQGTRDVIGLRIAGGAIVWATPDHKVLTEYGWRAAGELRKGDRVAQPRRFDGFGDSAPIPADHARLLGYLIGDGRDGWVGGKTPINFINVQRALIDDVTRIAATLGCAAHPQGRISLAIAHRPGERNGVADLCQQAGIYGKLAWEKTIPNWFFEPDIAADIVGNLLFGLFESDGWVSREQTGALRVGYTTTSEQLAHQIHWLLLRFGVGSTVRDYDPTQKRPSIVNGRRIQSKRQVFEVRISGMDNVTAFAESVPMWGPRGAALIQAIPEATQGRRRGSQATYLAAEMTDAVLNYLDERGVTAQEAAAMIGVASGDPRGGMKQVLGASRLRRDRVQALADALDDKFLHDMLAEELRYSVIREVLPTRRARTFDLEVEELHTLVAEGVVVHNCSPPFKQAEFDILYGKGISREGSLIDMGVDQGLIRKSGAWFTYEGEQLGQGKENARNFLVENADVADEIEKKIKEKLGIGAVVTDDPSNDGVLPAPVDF

[13] = Trypanosoma cruzi growth suppression in host cells – NIH3T3 host cells, beta-gal luminescence, confirmation (AID 2044); format: functional, cell-based;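 also: intracellular parasites grown in NIH/3T3 mouse fibroblasts as host cells; luminescent beta-galactosidase reporter signal from transgenic T. cruzi replicating inside host cells; inhibitors lower the luminescence signal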
[14] = NIH3T3 cell viability loss – ATP luminescence, mouse fibroblasts, counter-screen, dose response (AID 2010); format: functional, cell-based;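 also: cells exposed to compound for about 90 hours before reading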
[15] = test system: Streptococcus sp. 'group A'; experiment: Streptococcus pyogenes SK(-)GAS viability under kanamycin – luminescence, BacTiterGlo, confirmation, counter-screen for streptokinase expression inhibitor project, dose response (AID 1900); format: functional, organism-based
[16] = target: T4, Streptokinase A (Streptococcus pyogenes serotype M1, UniProt P10520); experiment: viability-normalized secreted streptokinase activity reduction – plasminogen activation absorbance, OD405, dose response (AID 1914); format: functional, Streptococcus pyogenes M1 GAS;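 also: secreted streptokinase activity via plasminogen activation per viability signal from cell pellet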
T4 sequence (P10520 whole entry): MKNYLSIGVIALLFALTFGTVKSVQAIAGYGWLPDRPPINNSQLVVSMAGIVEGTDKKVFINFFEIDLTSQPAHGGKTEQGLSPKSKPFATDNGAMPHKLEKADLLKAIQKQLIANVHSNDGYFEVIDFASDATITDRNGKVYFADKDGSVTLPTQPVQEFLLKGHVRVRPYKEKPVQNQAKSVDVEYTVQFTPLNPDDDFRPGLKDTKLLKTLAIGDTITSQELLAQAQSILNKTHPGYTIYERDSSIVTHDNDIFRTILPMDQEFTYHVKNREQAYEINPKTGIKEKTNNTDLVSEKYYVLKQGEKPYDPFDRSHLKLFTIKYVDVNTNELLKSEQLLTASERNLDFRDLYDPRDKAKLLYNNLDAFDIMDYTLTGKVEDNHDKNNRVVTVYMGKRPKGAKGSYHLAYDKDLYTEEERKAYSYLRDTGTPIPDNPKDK

[17] = test system: Streptococcus; experiment: GAS UMAA2166 growth inhibition – luminescence, BacTiterGlo, counter-screen for streptokinase expression inhibitor project, dose response (AID 1915); format: functional, organism-based;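 also: potency for reduction of bacterial viability or growth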
[18] = Luminescence Cell-Based Dose Retest to Confirm Inhibitors of Cancer Stem Cells. [Related pubchem assays (depositor defined):AID2717, AID2721]; format: functional; conditions: Homo sapiens

Cc1nc2ncnn2c(C)c1CCC(=O)NCc1ccco1
EC50 [1]: > 260 µM (inactive) | AC50 [2]: inconclusive | AC50 [3]: 10 µM (inconclusive)

O=C(CCCC1=NS(=O)(=O)c2ccccc2N1)N1CCN(c2ccccc2)CC1
EC50 [1]: > 260 µM (inactive)

CCOc1ccc(C(=O)Nc2ccc3c(c2)OCCO3)cc1
EC50 [1]: > 260 µM (inconclusive)

O=[N+]([O-])c1ccc(OCCCCN2CCCCC2)cc1
EC50 [4]: > 350 µM (not active) | EC50 [5]: > 350 µM (not active)

CC(C)(C)NC(=O)NC(=O)CN1CC=C(c2ccccc2)CC1
EC50 [1]: > 260 µM (inactive)

Cc1ccc(NC(=O)c2cc(=O)c3ccccc3o2)cc1
EC50 [6]: 1.12 µM (active) | EC50 [7]: 17.9 µM (active) | EC50 [8]: 21.6 µM (active)

O=C(CSc1ncccn1)Nc1ccc(S(=O)(=O)N2CCCCC2)cc1
AC50 ([2]; read-out: AC50): 25.1 µM (inconclusive) | AC50 [3]: 25.1 µM (inconclusive)

Cc1ccc(NC(=O)C2CC(=O)n3c(nc4ccccc43)N2)cc1 (centres undefined)
AC50 ([2]; read-out: AC50): 6.31 µM (inconclusive) | AC50 [3]: 17.8 µM (inconclusive) | AC50 [9]: 0.0355 µM (inconclusive)

Cc1nnc(Sc2nc3c(c(=O)n(C)c(=O)n3C)n2Cc2ccccc2Cl)s1
EC50 [1]: > 260 µM (inactive)

CCc1cc(=O)oc2c(CNCc3ccccc3F)c(O)c(Cl)cc12
EC50 [1]: > 260 µM (inactive)

CN(Cc1cccc(C(F)(F)F)c1)C(=O)C1CCC(=O)N(CC2CCCCC2)C1 (centres undefined)
EC50 [4]: > 350 µM (not active) | EC50 [5]: > 350 µM (not active)

CCC(=O)c1ccc(N2CCN(C(=O)c3ccc(Br)cc3)CC2)c(F)c1
EC50 [4]: > 350 µM (not active) | EC50 [5]: > 350 µM (not active)

CCCCOC(=O)c1ccc(NC(=S)NC(=O)c2c(Br)c(C)nn2C)cc1
EC50 [4]: > 350 µM (not active) | EC50 [5]: 44.9 µM (active)

CCOC(=O)c1ccc(S(=O)(=O)NNC(=O)COc2ccccc2C)cc1
EC50 [4]: > 350 µM (not active) | EC50 [5]: > 350 µM (not active)

CNc1nc(N)c([N+](=O)[O-])c(Nc2cccc(F)c2)n1
AC50 [10]: > 260 µM (inactive)

Cc1cc2nc(CCN(C(S)=NCC3CCCO3)C3CCCC3)[nH]c2cc1C (centres undefined)
EC50 [1]: > 260 µM (inactive)

CC(=O)c1ccc(N(C(=O)c2csnn2)C(C(=O)NC(C)(C)C)c2cccs2)cc1 (centres undefined)
EC50 [4]: > 350 µM (not active) | EC50 [5]: > 350 µM (not active)

Cc1ccc(C)c(S(=O)(=O)Nc2ccc(O)c3ccccc23)c1
AC50 [11]: 0.384 µM (active) | EC50 [12]: 0.0745 µM (active) | AC50 [10]: 7.62 µM (active)

O=C(Cn1c(-c2ccccc2)c[n+]2ccsc12)c1ccc([N+](=O)[O-])cc1
EC50 [13]: 0.549 µM (active) | EC50 [14]: > 60 µM (not active) | AC50 [10]: 11.6 µM (active)

CCOC(=O)C1(Cc2ccc(OC)cc2)CCN(C(=O)c2cc3ccccc3[nH]2)CC1
EC50 [1]: 30.3 µM (active)

[O-][n+]1c2ccccc2c2n1CCCN=C2c1ccc(Cl)cc1
EC50 [6]: 7.98 µM (active) | EC50 [7]: 8.34 µM (active) | EC50 [8]: 41.8 µM (active)

CCN=C(S)N1CCN(S(=O)(=O)c2cccc(C(F)(F)F)c2)CC1
EC50 [1]: > 260 µM (inactive)

COC(=O)Nc1nnc(Cc2ccc(OC)cc2)s1
EC50 [4]: > 350 µM (not active) | EC50 [5]: > 350 µM (not active)

CCC(C)Sc1cccc(-c2nc3ccc(C)cn3c2NCc2ccccc2)c1 (centres undefined)
EC50 [15]: 3.25 µM (active) | EC50 [16]: 4.26 µM (active) | EC50 [17]: 10.3 µM (active) | AC50 [18]: 2.75 µM (active) | AC50 [10]: 7.39 µM (active)

CCNS(=O)(=O)c1ccc(NC(=O)c2cncc(Br)c2)cc1
EC50 [4]: > 350 µM (not active) | EC50 [5]: > 350 µM (not active)

CCOc1ccccc1CN1CCNC(=O)C1CC(=O)NCc1nccn1CC (centres undefined)
EC50 [1]: > 260 µM (inactive)

CCn1c(SCC(=O)N/N=C/C=C/c2ccco2)nc2ccccc21
EC50 [1]: > 260 µM (inactive)

Cc1ccc(/C=N/NC(=O)Cc2ccc(Cl)cc2)c(O)c1
EC50 [15]: 1.1 µM (active) | EC50 [17]: 3.08 µM (active) | AC50 [10]: 3.76 µM (active)

C/C(=N\NC(=O)C(=O)Nc1cccc(Cl)c1)c1ccncc1
AC50 [10]: 4.88 µM (active)

Cc1cc(SCC(=O)N/N=C/c2ccccc2C(=O)O)c(C)cc1Br
EC50 [4]: > 350 µM (not active) | EC50 [5]: > 350 µM (not active)

COc1ccc(/C=N/NC(=O)c2cccnc2)c(C(=O)O)c1OC
EC50 [1]: > 260 µM (inactive)
